Measured values from BindingDB's records for doi:10.1021/jm00028a001 (University of Pennsylvania, 1994).

Target: T1, Dimer of Gag-Pol polyprotein [489-587] (Human immunodeficiency virus 1, UniProt P12497)
T1 construct: 489-587
Assay: Protease Inhibition Assay
Conditions: pH 5.5; 30 °C
Experimental: Sensitivity of HIV-1 protease activity to protease inhibitors was determined by a peptide substrate cleavage assay. Protease products were analyzed on a reverse-phase high-pressure liquid chromatograph.

With `CCC(C)[C@@H]1NC(=O)[C@@H](NC[C@@H](O)[C@H](Cc2ccc(O)cc2)NC(=O)[C@H](C(C)C)N2CCCC2=O)Cc2ccc(cc2)OCCCNC1=O` (stereo partly drawn) [(2S)-N-[(2S,3R)-4-{[(8S,11S)-8-[(2R)-butan-2-yl]-7,10-dioxo-2-oxa-6,9-diazabicyclo[11.2.2]heptadeca-1(15),13,16-trien-11-yl]amino}-3-hydroxy-1-(4-hydroxyphenyl)butan-2-yl]-3-methyl-2-(2-oxopyrrolidin-1-yl)butanamide] as the compound, how does the IC50 read?
The IC50 was 10 nM.

With `CC(C)C[C@@]1(C2C=N[C@@](Cc3ccccc3)(C[C@H](O)[C@H](Cc3ccccc3)NC(=O)O[C@@H]3CCOC3)C2=O)N=CC([C@@H](Cc2ccccc2)C(N)=O)C1=O` (stereo partly drawn) [(3R)-oxolan-3-yl N-[(2S,3S)-4-[(2S)-2-benzyl-4-[(2S)-4-[(1R)-1-carbamoyl-2-phenylethyl]-2-(2-methylpropyl)-3-oxo-2,3-dihydro-1H-pyrrol-2-yl]-3-oxo-2,3-dihydro-1H-pyrrol-2-yl]-3-hydroxy-1-phenylbutan-2-yl]carbamate] as the compound, how does the IC50 read?
The IC50 was 1.3 nM.

How did the IC50 turn out when `CC(C)(C)NC(=O)[C@@H]1CCCCN1C[C@@H](O)[C@@H]1Cc2ccc(cc2)OCCCC(=O)N[C@@H](CC(N)=O)C(=O)N1` [Peptidomimetic inhibitor 4] was run?
Its IC50 is 0.6 nM.
